US20080146511A1, “SELECTION METHOD OF PEPTIDES, PEPTIDES, METHOD AND KIT OF INFECTION IDENTIFICATION BY MYCOBACTERIUM LEPRAE, PHARMACEUTICAL OR IMMUNOLOGICAL COMPOSITIONS CONTAINING PEPTIDES OF MYCOBACTERIUM LEPRAE OR SEQUENCES FUNCTIONALLY EQUIVALENT” (Fundacao Oswaldo Cruz - FIOCRUZ, priority 2006, published 2008)
“Also recorded” adds a separate entry of the source.

Tested on: PBMC (peripheral blood mononuclear cells)
Type: cell-based, human
Design: key to IFN-γ response specificity mark (asterisk): *: Peptides that induced response in leprosy patients only, or contact groups (but not in TB or EC groups) appear with an asterisk
Settings: for comparison of IFN-γ levels between groups (ANOVA, Tukey post hoc): PB, MB, HC, TB, EC; for specificity of IFN-γ response (PB and HC versus TB, EC, NEC) / IFN-γ response specificity mark (asterisk): PBMC, day 5; for specificity of IFN-γ response (PB and HC versus TB, EC, NEC) / IFN-γ responses in groups TB and EC: 10 μg/ml; for IFN-γ response specificity mark (asterisk): peptide 10 μg/ml, leprosy patients/contacts vs TB and EC groups; for IFN-γ responses in groups TB and EC: PBMC of TB patients and endemic controls, day 5, cutoff 125 pg/ml

| Sequence | IFN-γ response specificity mark (asterisk) | other results |
| --- | --- | --- |
| RLDGTTLEV [p69, M. leprae ML1419c aa 113-121] | p69* | comparison of IFN-γ levels between groups (ANOVA, Tukey post hoc): significantly higher in HC (p=0.02) and in PB (p=0.01); specificity of IFN-γ response (PB and HC versus TB, EC, NEC): specific, inducing good responses in groups PB and HC, and no response in groups TB, EC or NEC |
| VGKVQGLLARLLTLP [p76, M. leprae ML2498 aa 75-89] | p76* |  |
| GMDVGKVEALKIDGD [p93, M. leprae ML2591 mce1C aa 62-76] |  | IFN-γ responses in groups TB and EC: most frequent responses in groups EC or TB |
| LQPYRLLRGGDSEYW [p75, M. leprae ML2177c aa 169-183] | p75* | capacity to discriminate PB patients from exposed healthy individuals (HC): discriminate individuals with known infection by Mycobacterium leprae (patients PB) from those individuals exposed to said microorganism, but healthy; comparison of IFN-γ levels between groups (ANOVA, Tukey post hoc): significantly higher in HC |
| LTVVVKQRSKAFRPS [p39, M. leprae ML0008c aa 24-38] | p39* |  |
| EAVLLRLDGTTLEVE [p65, M. leprae ML1419c aa 108-122] | p65* | specificity of IFN-γ response (PB and HC versus TB, EC, NEC): specific, inducing good responses in groups PB and HC, and no response in groups TB, EC or NEC |
| GNAMTTLGGRGISVV [p79, M. leprae ML0098 fbpC aa 84-98] |  | IFN-γ responses in groups TB and EC: induced responses in individuals in groups TB and EC; also recorded: most frequent responses in groups EC or TB |
| FDEYRAMFALSAMDL [p56, M. leprae ML0308 aa 17-31] | p56* |  |
| GDVWKSIVHLRSTRH [p81, M. leprae ML0126 aa 180-194] | p81* |  |
| DDFLSLQRSISPNSY [p44, M. leprae ML0126 aa 251-265] | p44* |  |
| QLLGQTADV [p52, M. leprae ML1057 aa 59-67] | p52* | specificity of IFN-γ response (PB and HC versus TB, EC, NEC): specific, inducing good responses in groups PB and HC, and no response in groups TB, EC or NEC |
| LATVQYDDRRRFTKE [p91, M. leprae ML2347 aa 301-315] | p91* | capacity to discriminate PB patients from exposed healthy individuals (HC): discriminate individuals with known infection by Mycobacterium leprae (patients PB) from those individuals exposed to said microorganism, but healthy; comparison of IFN-γ levels between groups (ANOVA, Tukey post hoc): induced the same kind of response |
| RRTVKILRPLPSNIT [p53, M. leprae ML2567 aa 95-109] | p53* |  |
| LDIYTTLARDMAAIP [p71, M. leprae ML1553 proS aa 180-194] | p71* |  |
| LILGLLPAI [p61, M. leprae ML0398c aa 16-24] | p61* | specificity of IFN-γ response (PB and HC versus TB, EC, NEC): more specific than longer 15-mer peptide |
| DSTDTTDWSTAMTDA [p77, M. leprae ML2703 trxB aa 331-335] | p77* |  |
| YGQVVRDVENTLRYL [p80, M. leprae ML0126 aa 125-139] | p80* |  |
| MQEYRGLTSHTPCCR [p70, M. leprae ML1420 aa 93-107] | p70* |  |
| DDIWRTLASAVITGN [p88, M. leprae ML1189c aa 55-69] | p88* |  |
| NHAVSSDFKTRSTNT [p54, M. leprae ML2567 aa 72-86] | p54* |  |
| LQAYSNLFGRTSAMQ [p92, M. leprae ML2452c aa 28-42] | p92* | capacity to discriminate PB patients from exposed healthy individuals (HC): discriminate individuals with known infection by Mycobacterium leprae (patients PB) from those individuals exposed to said microorganism, but healthy; comparison of IFN-γ levels between groups (ANOVA, Tukey post hoc): induced the same kind of response |

| Sequence | IFN-γ response specificity mark (asterisk) | other results |
| --- | --- | --- |
| KKRLTLLSGAMARRA [p82, M. leprae ML0394c aa 141-155] | p82* |  |
| MATIRTVRNLKLCNP [p37, M. leprae ML0008c aa 1-15] |  | IFN-γ responses in groups TB and EC: induced unexpected responses in groups EC or TB |
| SGRVTYLNPVGVKWM [p67, M. leprae ML1419c aa 51-65] | p67* | capacity to discriminate PB patients from exposed healthy individuals (HC): discriminate individuals with known infection by Mycobacterium leprae (patients PB) from those individuals exposed to said microorganism, but healthy; comparison of IFN-γ levels between groups (ANOVA, Tukey post hoc): higher in PB |
| GRYYAEINSAKMYFG [p49, M. leprae ML1057 aa 10-24] | p49* |  |
| DATFQVIFSQHVHLS [p83, M. leprae ML0394c aa 97-111] | p83* |  |
| QVIFRDLTTQKAAEE [p66, M. leprae ML1419c aa 137-151] | p66* |  |
| RVSYGSECRSGNCLR [p40, M. leprae ML0008c aa 107-121] | p40* |  |
| TIEFLWQEGHSAHIE [p72, M. leprae ML1553 proS aa 154-168] |  | IFN-γ responses in groups TB and EC: induced responses in individuals in groups TB and EC; also recorded: most frequent responses in groups EC or TB |
| AAALEQLLGQTADVA [p51, M. leprae ML1057 aa 54-68] | p51* | specificity of IFN-γ response (PB and HC versus TB, EC, NEC): specific, inducing good responses in groups PB and HC, and no response in groups TB, EC or NEC |
| THAFDLVLSSHLLFT [p57, M. leprae ML0308 aa 139-153] |  | IFN-γ responses in groups TB and EC: induced responses in individuals in groups TB and EC |
| LDDFLSLQRSISPNS [p42, M. leprae ML0126 aa 250-264] | p42* |  |
| DAEWLKLTSLGLRPR [p73, M. leprae ML1829 aa 108-122] | p73* |  |
| LNQLVSLVKQIFVQQ [p47, M. leprae ML0394c aa 73-87] | p47* |  |
| VKAVVDDVNAILLTGR [p74, M. leprae ML1915 aa 89-104] | p74* |  |
| QLMYLIEITSETKAL [p48, M. leprae ML0394c aa 22-36] | p48* |  |
| AILYRKIHGQDPAER [p60, M. leprae ML0398c aa 288-302] |  | IFN-γ responses in groups TB and EC: induced responses in individuals in groups TB and EC |
| TRLLTVVVKQRSKAF [p38, M. leprae ML0008c aa 21-35] | p38* |  |
| GINLPKDELTAFGRK [p63, M. leprae ML0757c aa 6-20] | p63* |  |
| VYLYNYLLAETSHVL [p86, M. leprae ML0840c aa 287-301] | p86* |  |
| LLEEGVIVL [p68, M. leprae ML1419c aa 267-275] | p68* | capacity to discriminate PB patients from exposed healthy individuals (HC): discriminate individuals with known infection by Mycobacterium leprae (patients PB) from those individuals exposed to said microorganism, but healthy; comparison of IFN-γ levels between groups (ANOVA, Tukey post hoc): induced the same kind of response |
